Measurements: patent US11072632B2, “Inhibitors of 17β-HSD1, 17β-HSD3 and 17β-HSD10” (UNIVERSITÉ LAVAL, priority 2011, dated 2021)
Read-outs that look alike come from different tables or passages of the source.

What was measured:
[1] = tested on: ovariectomized (OVX) mice; test: In vivo estrogenic activity (uterotrophic assay) in OVX mice; parameters: species or system mouse; conditions: for increase in uterine weight vs. control group: 100 μg/kg s.c. BID, 7 days
Procedure: The mice were fed rodent chow and tap water ad libitum. The animals were ovariectomized (OVX) under isoflurane-anaesthesia via bilateral flank incisions and randomly assigned to groups (5 animals by group). Mice in the OVX control group received the vehicle alone (8% ethanol-0.4% methylcellulose) during the 7-day period. The possible estrogenic activity of tested compounds was evaluated after their administration by subcutaneous (s.c.) injection [1, 10 and 100 μg/kg, s.c., twice daily (BID)] as suspension in 8% ethanol-0.4% methylcellulose to OVX female mice for 7 days. On day 8, the mice were sacrificed by cervical dislocation. The uteri and vagina were rapidly removed, freed from fat and connective tissue and weighed. Results are the means±SEM of 5 mice per group.

[2] = tested on: androgen-sensitive (AR+) Shionogi cells; test: Proliferative (androgenic) activity on androgen-sensitive Shionogi cells; format: cell-based; conditions: basal (control) 100%
Procedure: The proliferative (androgenic) activity was determined using androgen-sensitive Shionogi cells following a known literature procedure.^54 Inhibitors and reference compounds were tested at two concentrations (0.1 and 1.0 μM). The androgenicity was reported as % cell proliferation (versus the control). The basal cell proliferation (control) was fixed at 100%.

17β-HSD3 [3] = target: T1, 17β-HSD3 (Homo sapiens, UniProt P37058); test: Inhibition of 17β-HSD3 in homogenated HEK-293 cells; format: biochemical; conditions: Table 2 (17β-HSD3)
T1 construct: expressed in transfected cells; host or cells: HEK-293 (homogenate)
T1 sequence (P37058 1-310): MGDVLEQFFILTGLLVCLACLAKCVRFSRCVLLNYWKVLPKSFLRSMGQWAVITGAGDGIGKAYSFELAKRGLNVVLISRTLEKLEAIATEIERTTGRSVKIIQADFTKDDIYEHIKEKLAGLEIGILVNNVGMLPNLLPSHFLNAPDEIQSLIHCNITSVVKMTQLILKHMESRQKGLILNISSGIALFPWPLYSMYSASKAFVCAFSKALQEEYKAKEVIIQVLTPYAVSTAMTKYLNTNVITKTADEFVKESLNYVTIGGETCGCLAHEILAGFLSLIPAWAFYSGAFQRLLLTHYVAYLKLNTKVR

17β-HSD3 [4] = target: T1, 17β-HSD3; test: Inhibition of 17β-HSD3 in intact HEK-293 cells; format: cell-based; conditions: HEK293, 1 h, Table 2 (17β-HSD3)
17β-HSD1 = target: T2, 17β-HSD1 (Homo sapiens, UniProt P14061); test: Inhibition of 17β-HSD1 in T-47D intact cells (E1 into E2); format: cell-based; conditions: T47D; for inhibition at 1 µM: read-out: Inhibition (1 μM); for inhibition at 0.01 µM: read-out: Inhibition % (0.01 μM)
T2 construct: endogenous in cells; host or cells: T-47D
T2 sequence (P14061 1-328): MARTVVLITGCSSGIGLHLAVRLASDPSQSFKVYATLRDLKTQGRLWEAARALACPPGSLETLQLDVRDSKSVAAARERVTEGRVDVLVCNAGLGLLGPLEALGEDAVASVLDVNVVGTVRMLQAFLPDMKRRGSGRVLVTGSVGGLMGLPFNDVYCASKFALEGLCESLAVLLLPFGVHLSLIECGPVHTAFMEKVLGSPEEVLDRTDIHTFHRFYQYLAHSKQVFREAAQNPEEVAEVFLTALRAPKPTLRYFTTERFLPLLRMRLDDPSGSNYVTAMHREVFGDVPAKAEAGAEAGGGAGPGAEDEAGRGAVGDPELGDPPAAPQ
Procedure: T-47D cells were seeded in a 24-well plate (3000 cells/well) in medium supplemented with insulin (50 ng/mL) and 5% dextran-coated charcoal treated FBS rather than 10% FBS to remove remaining hormones. […] Each inhibitor was assessed in triplicate. After incubation, the culture medium was removed and labelled steroids (E1 and E2) extracted with 1 mL of diethyl ether. The organic phases were separated and evaporated to dryness using nitrogen. Residues were dissolved in dichloromethane and dropped on silica gel thin layer chromatography plates (EMD Chemicals Inc., Gibbstown, N.J., USA) and eluted with a toluene/acetone (4:1) solvent system. Substrate [^14C]-E1 and metabolite [^14C]-E2 were identified by comparison with reference steroids and quantified using a Storm 860 system (Molecular Dynamics, Sunnyvale, Calif., USA).
T-47D cells were seeded in a 24-well plate (3000 cells/well) in 990 μL of medium supplemented with insulin (50 ng/mL) and 5% dextran-coated charcoal-treated FBS, which was used rather than untreated 10% FBS, to remove the remaining steroid hormones. […] The final concentration of ethanol in the well was adjusted to 0.1%. Additionally, 5 μL of a solution of [^14C]-estrone (American Radiolabeled Chemicals, Inc., St. Louis, Mo., USA) was added to obtain a final concentration of 60 nM. […] After incubation, the culture medium was removed and labeled steroids (E1 and E2) were extracted with 1 mL of diethyl ether. The organic phases were evaporated to dryness with nitrogen. Residues were dissolved in dichloromethane and dropped on silica gel thin layer chromatography plates (EMD Chemicals Inc., Gibbstown, N.J., USA) and eluted with toluene/acetone (4:1) as solvent system. Substrate [^14C]-E1 and metabolite [^14C]-E2 were identified by comparison with reference steroids (E1 and E2) and quantified using the Storm 860 system (Molecular Dynamics, Sunnyvale, Calif., USA).

MCF-7 cells = test: Estrogenic activity in MCF-7 cells; for Estrogenicity (0.1 μM): key: — = no; + = weak; ++ = medium to strong; for Estrogenicity (1.0 μM): key: — = no; + = weak; ++ = medium to strong; format: cell-based, human; conditions: 7 days; for Estrogenicity (1.0 μM) / Estrogenicity (0.1 μM): growth of estrogen-starved MCF-7 cells; for estrogenic activity on MCF-7 cells (FIG. 1): concentrations up to 5 μM
Procedure: MCF-7 cells were seeded with medium supplemented with insulin (50 ng/mL) and 5% dextran-coated charcoal treated FBS rather than 10% FBS to remove remaining hormones. Aliquots (100 μL) of the cell suspension were seeded in 96-well plates (3000 cells/well). […] Cells were grown either in the absence or presence of the compounds over a period of 7 days. Quantification of cell growth was determined by using the CellTiter 96®Aqueous Solution Cell Proliferation Assay (Promega, Nepean, ON, Canada) following the manufacturer's instructions. To determine the proliferative (estrogenic) activity, the cells were grown in the absence (control fixed as 100%) or presence of the tested compounds at the indicated concentrations.

[5] = Table 2 (17β-HSD1), [14C]-E1 60 nM, T-47D intact cells, 0.1 μM, read-out: Inhibition (0.1 μM)
[6] = Table 2 (17β-HSD1), [14C]-E1 60 nM, T-47D intact cells, 1 μM
[7] = [14C]-E1 (60 nM) into [14C]-E2, T-47D intact cells
[8] = [14C]-E1 (60 nM) into [14C]-E2, T-47D intact cells, 0.1 μM, read-out: Inhibition % (0.1 μM)

`C[C@]12CC[C@@H]3c4ccc(O)cc4CC[C@H]3[C@@H]1CC[C@H]2O` [17α-E2 (2), 17α-estradiol] was tested, and the “increase in uterine weight vs. control group” value (shortened to “increase”) [1] was 3.6 fold.
In the case of `C[C@@]12CC[C@@H]3c4ccc(O)cc4CC[C@H]3[C@@H]1CC[C@H]2O` [18-epi-17α-E2 (4), (13α,17α)-estra-1(10),2,4-triene-3,17-diol], the “increase” value [1] is reported as 2.6 fold.
In the case of `C[C@@]12CC[C@@H]3c4ccc(O)cc4CC[C@H]3[C@@H]1CC[C@@H]2O` [18-epi-17β-E2 (3), (13α,17β)-estra-1(10),2,4-triene-3,17-diol], the “increase” value [1] is reported as 1.5 fold and the uterotrophic activity ([1]; uterus and vagina, OVX mice) is reported as “no significant uterotrophic activity”.
With `C[C@]12CC[C@](O)(Cc3ccccc3)C[C@@H]1CC[C@@H]1[C@@H]2CC[C@]2(C)C(=O)CC[C@@H]12` [CS-213, 3β-benzyl-3α-hydroxy-5α-androstan-17-one, reference compound] the “cell proliferation, % of basal” value ([2]; 0.1 μM) was 225% and the “cell proliferation, % of basal” value ([2]; 1 μM) was 396%.
Work on `CCN(Cc1ccccc1)C[C@@]1(O)CC[C@@]2(C)[C@@H](CC[C@@H]3[C@@H]2CC[C@]2(C)C(=O)CC[C@@H]32)C1` [Compound 7a, (3α,5α)-3{[benzyl(ethyl)amino]methyl}3-hydroxyandrostan-17-one] yielded an inhibition at 0.1 µM (17β-HSD3 [3]; 0.1 μM, read-out: Homo (%) (0.1 μM)) of 85%, an inhibition at 1 µM (17β-HSD3 [3]; 1 μM, read-out: Homo (%) (1 μM)) of 90% and an inhibition at 0.01 µM (17β-HSD3 [3]; [14C]-Δ4-dione 50 nM into [14C]-T, 0.01 μM, read-out: Homo (%) (0.01 μM)) of 42%. The inhibition at 0.1 µM (17β-HSD3 [4]; 0.1 μM, read-out: Intact cells (%) (0.1 μM)) was 86%, the inhibition at 1 µM (17β-HSD3 [4]; 1 μM, read-out: Intact cells (%) (1 μM)) was 94% and the “cell proliferation, % of basal” value ([2]; 0.1 μM) was 292%. For the same compound, the “cell proliferation, % of basal” value ([2]; 1 μM) was 314%.
`C[C@]12CC[C@@H]3c4ccc(CC(=O)O)cc4CC[C@H]3[C@@H]1C[C@H](Cc1cccc(C(N)=O)c1)[C@@H]2O` [Compound 31, [(16β,17β)-16-(3-carbamoylbenzyl)-17-hydroxyestra-1(10),2,4-trien-3-yl]acetic acid] was tested, and the inhibition at 0.1 µM (17β-HSD1; [5]) was 12%, the inhibition at 1 µM (17β-HSD1; [6]) was 29% and the “Estrogenicity (1.0 μM)” value (MCF-7 cells) was “+”.
In the case of `C[C@]12CC[C@@H]3c4ccc(C(=O)O)cc4CC[C@H]3[C@@H]1C[C@H](Cc1cccc(C(N)=O)c1)[C@@H]2O` [Compound 36, (16β,17β)-16-(3-carbamoylbenzyl)-17-hydroxyestra-1,3,5(10)-triene-3-carboxylic acid], the inhibition at 0.1 µM (17β-HSD1; [5]) is reported as 5%, the inhibition at 1 µM (17β-HSD1; [6]) is reported as 8% and the “Estrogenicity (1.0 μM)” value (MCF-7 cells) is reported as “++”.
`C[C@]12CC[C@@H]3c4ccc(CN)cc4CC[C@H]3[C@@H]1C[C@H](Cc1cccc(C(N)=O)c1)[C@@H]2O` [Compound 39, 3-{[(16β,17β)-3-(aminomethyl)-17-hydroxyestra-1,3,5(10)-trien-16-yl]methyl}benzamide] was tested, and the inhibition at 0.1 µM (17β-HSD1; read-out: Inhibition (0.1 μM)) was 35%, the inhibition at 1 µM (17β-HSD1) was 73% and the “Estrogenicity (0.1 μM)” value (MCF-7 cells) was “++”. The “Estrogenicity (1.0 μM)” value (MCF-7 cells) was “++”.
For `CNC(=O)c1ccc2c(c1)CC[C@@H]1[C@@H]2CC[C@]2(C)[C@@H](O)[C@@H](Cc3cccc(C(N)=O)c3)C[C@@H]12` [Compound 41d, (16β,17β)-16-(3-carbamoylbenzyl)-17-hydroxy-N-methylestra-1,3,5(10)-triene-3-carboxamide], the inhibition at 0.1 µM (17β-HSD1; read-out: Inhibition (0.1 μM)) was 3%, the inhibition at 1 µM (17β-HSD1) was 5% and the “Estrogenicity (1.0 μM)” value (MCF-7 cells) was “+”.
In the case of `C[C@]12CC[C@@H]3c4ccc(B(O)O)cc4CC[C@H]3[C@@H]1C[C@H](Cc1cccc(C(N)=O)c1)[C@@H]2O` [Compound 46, [(16β,17β)-16-(3-carbamoylbenzyl)-17-hydroxyestra-1(10),2,4-trien-3-yl]boronic acid], the inhibition at 0.1 µM (17β-HSD1; [5]) is reported as 39%, the “Estrogenicity (0.1 μM)” value (MCF-7 cells) is reported as “++” and the “Estrogenicity (1.0 μM)” value (MCF-7 cells) is reported as “++”.
In the case of `C[C@]12CC[C@@H]3c4ccc(N)cc4CC[C@H]3[C@@H]1C[C@H](Cc1cccc(C(N)=O)c1)[C@@H]2O` [Compound 50, 3-{[(16β,17β)-3-amino-17-hydroxyestra-1,3,5(10)-trien-16-yl]methyl}benzamide], the inhibition at 0.1 µM (17β-HSD1; read-out: Inhibition (0.1 μM)) is reported as 35%, the inhibition at 1 µM (17β-HSD1) is reported as 43% and the “Estrogenicity (1.0 μM)” value (MCF-7 cells) is reported as “+”.
For `C[C@]12CC[C@@H]3c4ccc(F)cc4CC[C@H]3[C@@H]1C[C@H](Cc1cccc(C(N)=O)c1)[C@@H]2O` [Compound 57, 3-{[(16β,17β)-3-fluoro-17-hydroxyestra-1(10),2,4-trien-16-yl]methyl}benzamide], the inhibition at 0.1 µM (17β-HSD1; read-out: Inhibition (0.1 μM)) was 48%, the inhibition at 1 µM (17β-HSD1) was 50% and the “Estrogenicity (1.0 μM)” value (MCF-7 cells) was “+”.
For `C[C@]12CC[C@@H]3c4ccc(C(N)=O)cc4CC[C@H]3[C@@H]1C[C@H](Cc1cccc(C(N)=O)c1)[C@@H]2O` [Compound 61, (16β,17β)-16-(3-carbamoylbenzyl)-17-hydroxyestra-1,3,5(10)-triene-3-carboxamide], the inhibition at 0.1 µM (17β-HSD1; [5]) was 3%, the inhibition at 1 µM (17β-HSD1; [6]) was 23% and the “Estrogenicity (1.0 μM)” value (MCF-7 cells) was “++”.
For `C[C@]12CC[C@@H]3c4ccc(CO)cc4CC[C@H]3[C@@H]1C[C@H](Cc1cccc(C(N)=O)c1)[C@@H]2O` [II, 3-{[(16β,17β)-17-hydroxy-3-(hydroxymethyl)estra-1,3,5(10)-trien-16-yl]methyl}benzamide], the inhibition at 0.1 µM (17β-HSD1; [5]) was 56%, the inhibition at 1 µM (17β-HSD1; [6]) was 73% and the inhibition at 0.01 µM (17β-HSD1; [7]) was 14%. For the same compound, the inhibition at 0.1 µM (17β-HSD1; [8]) was 37%, the “estrogenic activity on MCF-7 cells (FIG. 1)” value (MCF-7 cells) was “significant estrogenic activity” and the “Estrogenicity (1.0 μM)” value (MCF-7 cells) was “+”.
`C[C@]12CC[C@@H]3c4ccc(CCO)cc4CC[C@H]3[C@@H]1CC(Cc1cccc(C(N)=O)c1)[C@@H]2O` (stereo partly drawn) [IV, 3-{[(17β)-17-hydroxy-3-(2-hydroxyethyl)estra-1(10),2,4-trien-16-yl]methyl}benzamide] was tested, and the inhibition at 0.1 µM (17β-HSD1; [5]) was 19%, the inhibition at 1 µM (17β-HSD1; [6]) was 57% and the inhibition at 0.01 µM (17β-HSD1; [7]) was 7%. The inhibition at 0.1 µM (17β-HSD1; [8]) was 17%, the “estrogenic activity on MCF-7 cells (FIG. 1)” value (MCF-7 cells) was “completely removed any estrogenic activity” and the “Estrogenicity (0.1 μM)” value (MCF-7 cells) was “+”. The “Estrogenicity (1.0 μM)” value (MCF-7 cells) was “++”.
